Assay results as given in patent publication US4577020A, “Aminoalkyl and aminoalkenyl triazoles as anti-psychotic agents” (The Upjohn Company, priority 1983, dated 1986).

What was measured:
[1] = standard laboratory test which indicates analgesic activity
Description: However, the preferred use of the compounds of this invention is as anti-psychotic agents.

[2] = target: T1, ^3 H-spiroperidol binding (Mus musculus, UniProt P61168); test: In vivo spiroperidol binding assay
T1 construct: from tissue; host or cells: brain of ICR mice: striata, septum, most of the olfactory tubercles, small part of ventral cortex (in vivo labelling)
Procedure: D. In vivo spiroperidol Binding Assay
ICR strain mice, weighing about 20 gm, are given the test drugs or vehicle, i.p. or s.c., in 0.10 ml. Drug solutions are in saline, 0.1M citric acid, or 33% propylene glycol. After 1 hour, mice are given 66 micro-Curies (μCi)/kg of ^3 H-spiroperidol (specific activity […]) i.v. in 0.10 ml of saline. Four to 6 mice are given each test drug, and 4 of those which are successfully i.v. injected with the label are used for the rest of the experiment. At 3 hours (2 hours after the ^3 H-spiroperidol injection), the mice are sacrificed and the brains rapidly dissected. A section of brain tissue including the striata, septum, most of the olfactory tuberoles, and a small associated portion of the ventral edge of the cortex, is removed to dry ice. The tissues are weighed (usually 60-70 mg) and then dissolved in 1.0 ml of Protosol (New England Nuclear) overnight at about 40° C. The solutions are then neutralized with 80 μl of 6N HCl or 200 μl of 2.4N HCl, 15 ml of ACS counting solution (Amersham) is added, and the samples are counted by liquid scintillation spectroscopy. The amount of bound ^3 H-spiroperiodol, in cpm/mg tissue, is calculated for each test group and compared to the control group using the two-tailed Student's t test.
Of these tests, the in vivo spiroperidol binding assay is the most important indicator of antipsychotic activity. […]

T1 sequence (P61168 whole entry): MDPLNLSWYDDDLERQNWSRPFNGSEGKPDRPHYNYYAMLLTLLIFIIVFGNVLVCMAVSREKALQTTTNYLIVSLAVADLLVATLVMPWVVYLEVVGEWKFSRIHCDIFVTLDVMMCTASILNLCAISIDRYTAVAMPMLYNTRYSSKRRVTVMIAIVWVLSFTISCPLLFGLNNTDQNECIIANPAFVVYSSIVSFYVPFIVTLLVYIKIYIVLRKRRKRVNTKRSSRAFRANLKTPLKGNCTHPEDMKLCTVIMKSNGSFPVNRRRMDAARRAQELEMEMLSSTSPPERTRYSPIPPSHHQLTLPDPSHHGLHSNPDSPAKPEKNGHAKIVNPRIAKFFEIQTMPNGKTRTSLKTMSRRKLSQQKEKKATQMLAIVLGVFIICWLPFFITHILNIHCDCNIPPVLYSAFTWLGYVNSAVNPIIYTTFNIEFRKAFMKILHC

effectiveness in the in vivo spiroperidol binding assay (in words) [2]	SMILES	analgesic activity (in words) [1]
	Cc1nnc(C(C)(O)CCN(C)CCc2ccccc2)n1-c1ccccc1 (stereo not drawn) [Example 2]	effective
most effective	Cc1nnc(/C=C/CN2CCN(c3ccccc3)CC2)n1-c1ccccc1 [Example 3, (E)-1-[3-(5-methyl-4-phenyl-4H-1,2,4-triazol-3-yl)-2-propenyl]-4-phenyl-piperazine]	
most effective	CN(CCCc1nncn1-c1ccccc1)CCc1ccccc1 [N-methyl-4-phenyl-N-(2-phenylethyl)-4H-1,2,4-triazole-3-propanamine]	
